# Experimental data as given in patent US7803930B2, “Antisense modulation of apolipoprotein B-expression” (Isis Pharmaceuticals, Inc., priority 2002, dated 2010).
# In the oligonucleotide strings, read from the 5' end, every base follows the letter of its sugar. An asterisk marks phosphorothioate; unmarked linkages are phosphodiester. Other units and linkages are bracketed, terminal groups are in braces. A string of capitals states the bases alone. e = 2'-O-(2-methoxyethyl) (MOE); [5mC] = 5-methylcytosine; d = 2'-deoxy (DNA)
# Test system: human apolipoprotein B mRNA
# Assay: Inhibition of human apolipoprotein B mRNA levels in HepG2 cells, quantitative real-time PCR
# Type: cell-based
# Conditions: Table 11 gene walk; HepG2 cells, 50 nM; averages from two experiments
# Summary of the method: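 Apolipoprotein B transcript was quantified by one-step TaqMan RT-PCR, normalized to GAPDH or RiboGreen RNA, and expressed as percent inhibition against an untreated-sample standard curve. HepG2 cells were harvested 16-24 h after oligonucleotide exposure, which was delivered with 3.75 μg/mL Lipofectin over 4-7 h at 80% confluency.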
row,Substance,% INHIB 50 nm [%]
1,308589 (antisense e[5mC]*eT*eT*e[5mC]*eT*dG*d[5mC]*dT*dT*dG*dA*dG*dT*dT*dA*e[5mC]*eA*eA*eA*e[5mC]) [compound 308589],20
2,308590 (antisense eA*e[5mC]*e[5mC]*eT*eT*d[5mC]*dT*dG*d[5mC]*dT*dT*dG*dA*dG*dT*eT*eA*e[5mC]*eA*eA) [compound 308590],26
3,308591 (antisense eG*e[5mC]*eA*e[5mC]*e[5mC]*dT*dT*d[5mC]*dT*dG*d[5mC]*dT*dT*dG*dA*eG*eT*eT*eA*e[5mC]) [compound 308591],76
4,308592 (antisense eT*e[5mC]*eG*e[5mC]*eA*d[5mC]*d[5mC]*dT*dT*d[5mC]*dT*dG*d[5mC]*dT*dT*eG*eA*eG*eT*eT) [compound 308592],49
5,308593 (antisense e[5mC]*eT*eT*e[5mC]*eG*d[5mC]*dA*d[5mC]*d[5mC]*dT*dT*d[5mC]*dT*dG*d[5mC]*eT*eT*eG*eA*eG) [compound 308593],41
6,308594 (antisense eT*eG*e[5mC]*eT*eT*d[5mC]*dG*d[5mC]*dA*d[5mC]*d[5mC]*dT*dT*d[5mC]*dT*eG*e[5mC]*eT*eT*eG) [compound 308594],57
7,308595 (antisense eT*e[5mC]*eT*eG*e[5mC]*dT*dT*d[5mC]*dG*d[5mC]*dA*d[5mC]*d[5mC]*dT*dT*e[5mC]*eT*eG*e[5mC]*eT) [compound 308595],60
8,308596 (antisense eA*eG*eT*e[5mC]*eT*dG*d[5mC]*dT*dT*d[5mC]*dG*d[5mC]*dA*d[5mC]*d[5mC]*eT*eT*e[5mC]*eT*eG) [compound 308596],81
9,308597 (antisense eT*e[5mC]*eA*eG*eT*d[5mC]*dT*dG*d[5mC]*dT*dT*d[5mC]*dG*d[5mC]*dA*e[5mC]*e[5mC]*eT*eT*e[5mC]) [compound 308597],66
10,308598 (antisense e[5mC]*e[5mC]*eT*e[5mC]*eA*dG*dT*d[5mC]*dT*dG*d[5mC]*dT*dT*d[5mC]*dG*e[5mC]*eA*e[5mC]*e[5mC]*eT) [compound 308598],59
11,308599 (antisense eA*eG*e[5mC]*e[5mC]*eT*d[5mC]*dA*dG*dT*d[5mC]*dT*dG*d[5mC]*dT*dT*e[5mC]*eG*e[5mC]*eA*e[5mC]) [compound 308599],79
12,308600 (antisense eG*eT*eA*eG*e[5mC]*d[5mC]*dT*d[5mC]*dA*dG*dT*d[5mC]*dT*dG*d[5mC]*eT*eT*e[5mC]*eG*e[5mC]) [compound 308600],72
13,308601 (antisense eT*eG*eG*eT*eA*dG*d[5mC]*d[5mC]*dT*d[5mC]*dA*dG*dT*d[5mC]*dT*eG*e[5mC]*eT*eT*e[5mC]) [compound 308601],63
14,308602 (antisense e[5mC]*eA*eT*eG*eG*dT*dA*dG*d[5mC]*d[5mC]*dT*d[5mC]*dA*dG*dT*e[5mC]*eT*eG*e[5mC]*eT) [compound 308602],83
15,308603 (eG*eT*e[5mC]*eA*eT*dG*dG*dT*dA*dG*d[5mC]*d[5mC]*dT*d[5mC]*dA*eG*eT*e[5mC]*eT*eG; antisense) [compound 308603],56
16,308604 (eA*eT*eG*eT*e[5mC]*dA*dT*dG*dG*dT*dA*dG*d[5mC]*d[5mC]*dT*e[5mC]*eA*eG*eT*e[5mC]; antisense) [compound 308604],73
17,308605 (eG*eA*eA*eT*eG*dT*d[5mC]*dA*dT*dG*dG*dT*dA*dG*d[5mC]*e[5mC]*eT*e[5mC]*eA*eG; antisense) [compound 308605],50
18,308606 (eT*eT*eG*eA*eA*dT*dG*dT*d[5mC]*dA*dT*dG*dG*dT*dA*eG*e[5mC]*e[5mC]*eT*e[5mC]; antisense) [compound 308606],54
19,308607 (eA*eT*eT*eT*eG*dA*dA*dT*dG*dT*d[5mC]*dA*dT*dG*dG*eT*eA*eG*e[5mC]*e[5mC]; antisense) [compound 308607],9
20,308608 (eA*eT*eA*eT*eT*dT*dG*dA*dA*dT*dG*dT*d[5mC]*dA*dT*eG*eG*eT*eA*eG; antisense) [compound 308608],70
21,308609 (e[5mC]*eA*eG*e[5mC]*e[5mC]*dA*d[5mC]*dA*dT*dG*d[5mC]*dA*dG*d[5mC]*dT*eT*e[5mC]*eA*eG*eG; antisense) [compound 308609],78

# Same assay, conditions: Table 11 gene walk; HepG2 cells, 150 nM; averages from two experiments
row,Substance,% INHIB 150 nm [%]
1,308589 (antisense e[5mC]*eT*eT*e[5mC]*eT*dG*d[5mC]*dT*dT*dG*dA*dG*dT*dT*dA*e[5mC]*eA*eA*eA*e[5mC]) [compound 308589],94
2,308590 (antisense eA*e[5mC]*e[5mC]*eT*eT*d[5mC]*dT*dG*d[5mC]*dT*dT*dG*dA*dG*dT*eT*eA*e[5mC]*eA*eA) [compound 308590],98
3,308591 (antisense eG*e[5mC]*eA*e[5mC]*e[5mC]*dT*dT*d[5mC]*dT*dG*d[5mC]*dT*dT*dG*dA*eG*eT*eT*eA*e[5mC]) [compound 308591],92
4,308592 (antisense eT*e[5mC]*eG*e[5mC]*eA*d[5mC]*d[5mC]*dT*dT*d[5mC]*dT*dG*d[5mC]*dT*dT*eG*eA*eG*eT*eT) [compound 308592],96
5,308593 (antisense e[5mC]*eT*eT*e[5mC]*eG*d[5mC]*dA*d[5mC]*d[5mC]*dT*dT*d[5mC]*dT*dG*d[5mC]*eT*eT*eG*eA*eG) [compound 308593],80
6,308594 (antisense eT*eG*e[5mC]*eT*eT*d[5mC]*dG*d[5mC]*dA*d[5mC]*d[5mC]*dT*dT*d[5mC]*dT*eG*e[5mC]*eT*eT*eG) [compound 308594],88
7,308595 (antisense eT*e[5mC]*eT*eG*e[5mC]*dT*dT*d[5mC]*dG*d[5mC]*dA*d[5mC]*d[5mC]*dT*dT*e[5mC]*eT*eG*e[5mC]*eT) [compound 308595],82
8,308596 (antisense eA*eG*eT*e[5mC]*eT*dG*d[5mC]*dT*dT*d[5mC]*dG*d[5mC]*dA*d[5mC]*d[5mC]*eT*eT*e[5mC]*eT*eG) [compound 308596],94
9,308597 (antisense eT*e[5mC]*eA*eG*eT*d[5mC]*dT*dG*d[5mC]*dT*dT*d[5mC]*dG*d[5mC]*dA*e[5mC]*e[5mC]*eT*eT*e[5mC]) [compound 308597],91
10,308598 (antisense e[5mC]*e[5mC]*eT*e[5mC]*eA*dG*dT*d[5mC]*dT*dG*d[5mC]*dT*dT*d[5mC]*dG*e[5mC]*eA*e[5mC]*e[5mC]*eT) [compound 308598],85
11,308599 (antisense eA*eG*e[5mC]*e[5mC]*eT*d[5mC]*dA*dG*dT*d[5mC]*dT*dG*d[5mC]*dT*dT*e[5mC]*eG*e[5mC]*eA*e[5mC]) [compound 308599],94
12,308600 (antisense eG*eT*eA*eG*e[5mC]*d[5mC]*dT*d[5mC]*dA*dG*dT*d[5mC]*dT*dG*d[5mC]*eT*eT*e[5mC]*eG*e[5mC]) [compound 308600],89
13,308601 (antisense eT*eG*eG*eT*eA*dG*d[5mC]*d[5mC]*dT*d[5mC]*dA*dG*dT*d[5mC]*dT*eG*e[5mC]*eT*eT*e[5mC]) [compound 308601],91
14,308602 (antisense e[5mC]*eA*eT*eG*eG*dT*dA*dG*d[5mC]*d[5mC]*dT*d[5mC]*dA*dG*dT*e[5mC]*eT*eG*e[5mC]*eT) [compound 308602],92
15,308603 (eG*eT*e[5mC]*eA*eT*dG*dG*dT*dA*dG*d[5mC]*d[5mC]*dT*d[5mC]*dA*eG*eT*e[5mC]*eT*eG; antisense) [compound 308603],97
16,308604 (eA*eT*eG*eT*e[5mC]*dA*dT*dG*dG*dT*dA*dG*d[5mC]*d[5mC]*dT*e[5mC]*eA*eG*eT*e[5mC]; antisense) [compound 308604],90
17,308605 (eG*eA*eA*eT*eG*dT*d[5mC]*dA*dT*dG*dG*dT*dA*dG*d[5mC]*e[5mC]*eT*e[5mC]*eA*eG; antisense) [compound 308605],81
18,308606 (eT*eT*eG*eA*eA*dT*dG*dT*d[5mC]*dA*dT*dG*dG*dT*dA*eG*e[5mC]*e[5mC]*eT*e[5mC]; antisense) [compound 308606],97
19,308607 (eA*eT*eT*eT*eG*dA*dA*dT*dG*dT*d[5mC]*dA*dT*dG*dG*eT*eA*eG*e[5mC]*e[5mC]; antisense) [compound 308607],77
20,308608 (eA*eT*eA*eT*eT*dT*dG*dA*dA*dT*dG*dT*d[5mC]*dA*dT*eG*eG*eT*eA*eG; antisense) [compound 308608],85
21,308609 (e[5mC]*eA*eG*e[5mC]*e[5mC]*dA*d[5mC]*dA*dT*dG*d[5mC]*dA*dG*d[5mC]*dT*eT*e[5mC]*eA*eG*eG; antisense) [compound 308609],96
